Several values for one entry are separate records, joined by “and”; a condition that tells them apart may be missing. Identical values can stand only once. Some results are limits rather than exact numbers.

Data set [1] concerns the target T1, recombinant human mGluR4a receptors (Homo sapiens, UniProt Q14833).
T1 construct: expressed in transfected cells
The data set can be described thus: mGluR4 assay on HEK-expressing human mGluR4 (fluorescent cell based Ca2+ mobilization assay, FLIPR). As to conditions: HEK-293 cells expressing hmGluR4; enhancement of EC25 glutamate response; mean of at least three independent experiments in duplicate; read-out: Ca^2+ Flux (mean EC50). From the text: mGluR4 Assay on HEK-Expressing Human mGluR4 The compounds of the present invention are positive allosteric modulators of mGluR4 receptor. Their activity was examined on recombinant human mGluR4a receptors by detecting changes in intracellular Ca^2+ concentration, using the fluorescent Ca^2+-sensitive dye Fluo4-(AM) and a Fluorometric Imaging Plate Reader (FLIPR, Molecular Devices, Sunnyvale, Calif.). The cDNA encoding the human metabotropic glutamate receptor (hmGluR4), (accession number NM_000841.1, NCBI Nucleotide database browser), was subcloned into an expression vector containing also the hygromycin resistance gene. In parallel, the cDNA encoding a G protein allowing redirection of the activation signal to intracellular calcium flux was subcloned into a different expression vector containing also the puromycin resistance gene. Transfection of both these vectors into HEK293 cells with PolyFect reagent (Qiagen) according to supplier's protocol, and hygromycin and puromycin treatment allowed selection of antibiotic resistant cells which had integrated stably one or more copies of the plasmids. Positive cellular clones expressing hmGluR4 were identified in a functional assay measuring changes in calcium fluxes in response to glutamate or selective known mGluR4 orthosteric agonists and antagonists. HEK-293 cells expressing hmGluR4 were maintained in media containing DMEM, dialyzed Fetal Calf Serum (10%), Glutamax™ (2 mM), Penicillin (100 units/mL), Streptomycin (100 μg/mL), Geneticin (100 μg/mL) and Hygromycin-B (40 μg/mL) and puromycin (1 μg/mL) at 37° C./5% CO2. Human mGluR4HEK-293 cells were plated out 24 hours prior to FLIPR^384 assay in black-walled, clear-bottomed, poly-L-ornithine-coated 384-well plates at a density of 25,000 cells/well in a glutamine/glutamate free DMEM medium containing foetal bovine serum (10%), penicillin (100 units/mL) and streptomycin (100 μg/mL) at 37° C./5% CO2. On the day of the assay, the medium was aspirated and the cells were loaded with a 3 μM solution of Fluo4-AM (LuBioScience, Lucerne, Switzerland) in 0.03% pluronic acid. After 1 hour at 37° C./5% CO2, the non incorporated dye was removed by washing cell plate with the assay buffer and the cells were left in the dark at room temperature for […] before testing. All assays were performed in a pH 7.4 buffered-solution containing 20 mM HEPES, 143 mM NaCl, 6 mM KCl, 1 mM MgSO4, 1 mM CaCl2, 0.125 mM sulfapyrazone and 0.1% glucose. After 10 s of basal fluorescence recording, various concentrations of the compounds of the invention were added to the cells. Changes in fluorescence levels were first monitored for 180 s in order to detect any agonist activity of the compounds. Then the cells were stimulated by an EC25 glutamate concentration for an additional 110 s in order to measure enhancing activities of the compounds of the invention. EC25 glutamate concentration is the concentration giving 25% of the maximal glutamate response. The concentration-response curves of representative compounds of the present invention were generated using the Prism GraphPad software (Graph Pad Inc, San Diego, USA). The curves were fitted to a four-parameter logistic equation: (Y=Bottom+(Top−Bottom)/(1+10^((Log EC50−X)*Hill Slope) allowing the determination of EC50 values. The Table 3 below represents the mean EC50 obtained from at least three independent experiments of selected molecules performed in duplicate.

T1 sequence (Q14833 33-912): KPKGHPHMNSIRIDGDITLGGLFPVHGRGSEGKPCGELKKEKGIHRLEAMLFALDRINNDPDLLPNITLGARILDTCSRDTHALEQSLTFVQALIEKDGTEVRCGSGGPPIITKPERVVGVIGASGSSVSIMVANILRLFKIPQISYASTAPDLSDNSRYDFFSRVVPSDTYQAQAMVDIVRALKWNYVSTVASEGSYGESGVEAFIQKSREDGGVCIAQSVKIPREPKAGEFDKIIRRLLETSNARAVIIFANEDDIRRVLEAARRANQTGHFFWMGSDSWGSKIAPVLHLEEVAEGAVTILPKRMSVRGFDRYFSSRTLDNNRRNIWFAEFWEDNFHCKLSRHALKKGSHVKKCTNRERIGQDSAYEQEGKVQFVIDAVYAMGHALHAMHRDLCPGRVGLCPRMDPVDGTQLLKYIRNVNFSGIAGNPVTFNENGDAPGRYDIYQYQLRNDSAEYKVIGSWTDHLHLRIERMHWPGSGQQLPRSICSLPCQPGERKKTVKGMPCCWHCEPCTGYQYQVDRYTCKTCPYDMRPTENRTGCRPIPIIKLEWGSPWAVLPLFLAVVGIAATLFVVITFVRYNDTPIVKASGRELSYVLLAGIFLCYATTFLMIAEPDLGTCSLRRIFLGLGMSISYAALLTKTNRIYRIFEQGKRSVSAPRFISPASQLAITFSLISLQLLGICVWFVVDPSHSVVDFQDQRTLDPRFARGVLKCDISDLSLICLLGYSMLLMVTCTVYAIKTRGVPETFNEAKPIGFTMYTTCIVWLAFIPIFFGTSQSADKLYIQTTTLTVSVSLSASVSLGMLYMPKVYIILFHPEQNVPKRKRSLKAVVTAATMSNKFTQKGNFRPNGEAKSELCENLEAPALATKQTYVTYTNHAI

As to `c1ccc(Nc2csc(-c3cn[nH]c3)n2)nc1` [Compound 1-1, 2-(1H-Pyrazol-4-yl)-N-(pyridin-2-yl)thiazol-4-amine], the melting point is 207 to 209 °C and 209 to 210 °C. For the same compound, the 50% effective concentration (EC50) in data set [1] was under 100 nM.
On to `c1ccc(Nc2nsc(-c3cn[nH]c3)n2)nc1` [Compound 1-2, 5-(1H-Pyrazol-4-yl)-N-(pyridin-2-yl)-1,2,4-thiadiazol-3-amine], for which the EC50 in data set [1] is 100 to 1000 nM.
Regarding `Fc1cccc(Nc2csc(-c3cn[nH]c3)n2)n1` [Compound 1-3, N-(6-Fluoropyridin-2-yl)-2-(1H-pyrazol-4-yl)thiazol-4-amine], the melting point is 238 to 240 °C. In data set [1], the EC50 was under 100 nM.
In the same order, the values of `Cc1ccnc(Nc2csc(-c3cn[nH]c3)n2)n1` [Compound 1-4, N-(4-Methylpyrimidin-2-yl)-2-(1H-pyrazol-4-yl)thiazol-4-amine] are 230 to 232 °C and 100 to 1000 nM.
`COc1ccnc(Nc2csc(-c3cn[nH]c3)n2)n1` [Compound 1-5, N-(4-Methoxypyrimidin-2-yl)-2-(1H-pyrazol-4-yl)thiazol-4-amine] yielded a melting point of 250 to 252 °C. In addition, in data set [1], the EC50 was 100 to 1000 nM.
For `Cc1cccc(Nc2csc(-c3cn[nH]c3)n2)n1` [Compound 1-6, N-(6-Methylpyridin-2-yl)-2-(1H-pyrazol-4-yl)thiazol-4-amine], the EC50 in data set [1] is 100 to 1000 nM.
`c1cnc(Nc2csc(-c3cn[nH]c3)n2)nc1` [Compound 1-7, 2-(1H-Pyrazol-4-yl)-N-(pyrimidin-2-yl)thiazol-4-amine]: the melting point was 217 °C (dec.). In addition, in data set [1], the EC50 is under 100 nM.
As to `FC(F)(F)c1n[nH]cc1-c1nc(Nc2ccccn2)cs1` [Compound 1-8, N-(Pyridin-2-yl)-2-(3-(trifluoromethyl)-1H-pyrazol-4-yl)thiazol-4-amine], the melting point lay within 204 to 206 °C. Besides, the EC50 in data set [1] lay in the range of 100 to 1000 nM.
In turn, `c1ccc(Nc2csc(-c3c[nH]nc3C3CC3)n2)nc1` [Compound 1-9, 2-(3-Cyclopropyl-1H-pyrazol-4-yl)-N-(pyridin-2-yl)thiazol-4-amine] came in with a melting point of 141.3 °C. The EC50 in data set [1] was under 100 nM.
`c1cnc(Nc2csc(-c3c[nH]nc3C3CC3)n2)nc1` [Compound 1-10, 2-(3-Cyclopropyl-1H-pyrazol-4-yl)-N-(pyrimidin-2-yl)thiazol-4-amine] displayed a melting point of 241 °C. The EC50 in data set [1] was under 100 nM.
As for `FC(F)(F)c1n[nH]cc1-c1nc(Nc2ncccn2)cs1` [Compound 1-11, N-(Pyrimidin-2-yl)-2-(3-(trifluoromethyl)-1H-pyrazol-4-yl)thiazol-4-amine], the EC50 in data set [1] was under 100 nM.

Values taken from US8604033B2, “Preparation of 4-amino-thiazoles and 3-amino-1,2,4-thiadiazoles and their use as allosteric modulators of metabotropic glutamate receptors” (Addex Pharma S.A., priority 2010, dated 2013).
